Counter-ions that a name gives are not always drawn.
Key:
[1] = test system: mouse vascular injury model; assay: Neointimal formation suppressive effect in mouse vascular injury model; type: in vivo; conditions: high dose systemic administration: single intraperitoneal, 28 days after wire injury
Experimental: Using the pioglitazone-containing nanoparticles obtained in Example 1, the neointimal formation suppressive effect in mouse vascular injury model was tested. […] The both ends of the blood vessel were ligated with a 6-0 silk thread to temporarily shut off the blood flow. The branch was incised, and a wire (diameter […], No. C—SF-15-15, COOK) was inserted by 5 mm in the iliac artery side to injure the blood vessel. After wire injury, the experimental animals were divided into a solvent control group and pioglitazone-containing nanoparticle group. The wire was removed, 100 μl, each of a solvent and a pioglitazone-containing PLGA nanoparticle solution was intraarterially administered from the branch over 5 min. The solvent control group was administered with the solvent (phosphate buffered saline) alone only once. The pioglitazone-containing nanoparticle group was administered with the pioglitazone-containing PLGA nanoparticles obtained in Example 1 (containing 0.5 mg/mouse as nanoparticles, corresponding to pioglitazone concentration of 0.015 mg/mouse (0.5 mg/kg body weight)) once. After administration, the branch part was ligated, the blood flow was resumed and the skin was sutured. Immediately after the wire injury, a high dose (10-fold amount of clinical dose) pioglitazone hydrochloride (0.15 mg/mouse (5 mg/kg body weight) as pioglitazone) single time intraperitoneal administration group was formed. At 28 days after vascular injury, the right femoral artery was washed and fixed with phosphate buffered saline and neutral buffered formalin via the heart, and isolated. A paraffin section was prepared and stained with Elastica van Gieson, proliferating cell nuclear antigen (PCNA) was immunohistochemically stained, and evaluated for the intima/media ratio, neointimal area, medial area and cell proliferation. For immunohistochemical staining, the proliferated cells were counted and the ratio of thereof to the total cell number was calculated.

[2] = test system: Rat aortic smooth muscle cells; assay: Delivery and retention of nanoparticles in cultured rat smooth muscle cells; type: cell-based; conditions: medium containing FITC alone
Experimental: Using the FITC-containing nanoparticles prepared in Experimental Example 3 (1), deliver and retention tests in cultured rat […] smooth muscle cell were performed.
Rat aortic smooth muscle cells (obtained from TOYOBO) were plated on a slide glass chamber to a subconfluent cell density in DMEM medium (Sigma) containing 10% fetal bovine serum (day 0). On day 2, the medium was changed to a medium containing FITC or FITC-containing nanoparticles (0.5 mg/mL in nanoparticles concentration).
At 5 min and 24 hr after medium exchange, the cells were fixed with methanol, the nucleus was stained with Propidium iodide (Vector laboratories, Inc.), and subjected to fluorescence microscope observation. The total number of nuclei and fluorescence positive cells were counted for each field of view, and the ratio of fluorescence positive cells was calculated.

Molecule | Intima/media ratio ([1]; 0.15 mg/mouse (5 mg/kg) as pioglitazone) | Medial area (μm^2) ([1]; 5 mg/kg as pioglitazone) | Neointimal area (μm^2) ([1]; 5 mg/kg as pioglitazone) | Ratio of fluorescence positive cells [2]
CCc1ccc(CCOc2ccc(CC3SC(=O)NC3=O)cc2)nc1 (stereo not shown) [Pioglitazone, pioglitazone hydrochloride] | 2.3 ± 1.2 | 14904 ± 2107 μm^2 | 23656 ± 8982 μm^2 | 
fluorescein isothiocyanate [FITC] |  |  |  | 0%

Reference: patent US8337896B2, “Drug-containing nanoparticles” (Kyushu University, National University Corporation, priority 2007, dated 2012)
